Laboratory results reported in ChEMBL document CHEMBL1201862, “PubChem BioAssay data set” (2004).
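Compound exposure: 48 hours, 5 concentrations, 96-well plates. GI50 marks 50% less growth.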 Active and inactive are the calls of the source. Rule as the data show it: active = GI50 up to about 1.1 µM and inactive = higher.

Tests used:
Assay in all cases: inhibition of tumour cell growth, NCI panel, 48 h
U-251 = system: U-251
DU-145 = system: DU-145
Hs-578T = system: Hs-578T
SR = system: SR
NCI/ADR-RES = system: NCI/ADR-RES
K562 = system: K562
A498 = system: A498
786-0 = system: 786-0
NCI-H522 = system: NCI-H522
MDA-MB-435 = system: MDA-MB-435
UO-31 = system: UO-31
UACC-257 = system: UACC-257
HL-60 = system: HL-60
EKVX = system: EKVX
SF-268 = system: SF-268
M14 = system: M14
MCF7 = system: MCF7
MDA-N = system: MDA-N
HCC 2998 = system: HCC 2998

| SMILES | GI50 (U-251) | GI50 (DU-145) | GI50 (Hs-578T) | GI50 (SR) | GI50 (NCI/ADR-RES) | GI50 (K562) | GI50 (A498) | GI50 (786-0) | GI50 (NCI-H522) | GI50 (MDA-MB-435) | GI50 (UO-31) | GI50 (UACC-257) | GI50 (HL-60) | GI50 (EKVX) | GI50 (SF-268) | GI50 (M14) | GI50 (MCF7) | GI50 (MDA-N) | GI50 (HCC 2998) |
| --- | --- | --- | --- | --- | --- | --- | --- | --- | --- | --- | --- | --- | --- | --- | --- | --- | --- | --- | --- |
| C1=N\CCOCC/N=C\c2ccc(cc2)OCc2cccc(n2)COc2ccc/1cc2 | > 100 µM (inactive) | > 100 µM (inactive) | > 100 µM (inactive) | > 100 µM (inactive) | > 100 µM (inactive) | > 100 µM (inactive) | > 100 µM (inactive) | > 100 µM (inactive) | > 100 µM (inactive) | > 100 µM (inactive) | > 100 µM (inactive) | > 100 µM (inactive) | > 100 µM (inactive) | > 100 µM (inactive) | > 100 µM (inactive) | > 100 µM (inactive) | 85.5 µM (inactive) | > 100 µM (inactive) | – |
| CCCCCCCCCCCCCCCC[N+](C)(C)CCl | 1.68 µM (inactive) | 3.78 µM (inactive) | 1.85 µM (inactive) | 1.99 µM (inactive) | 20.6 µM (inactive) | 1.75 µM (inactive) | 8.67 µM (inactive) | 1.55 µM (inactive) | – | 3.07 µM (inactive) | 11.1 µM (inactive) | 4.71 µM (inactive) | 0.964 µM (active) | 8.61 µM (inactive) | 2.74 µM (inactive) | 2.31 µM (inactive) | 2.69 µM (inactive) | 3.72 µM (inactive) | 1.66 µM (inactive) |
| C=C1[C@H](OC(C)=O)[C@H]2[C@@H](OC(C)=O)[C@@H](C)C[C@]2(C)C(=O)[C@H](C)/C=C/C(C)(C)C(=O)[C@H](OCC(C)C)[C@H]1OC(C)=O | > 25 µM (inactive) | > 25 µM (inactive) | > 25 µM (inactive) | > 25 µM (inactive) | > 25 µM (inactive) | – | > 25 µM (inactive) | > 25 µM (inactive) | > 25 µM (inactive) | 20.7 µM (inactive) | > 25 µM (inactive) | > 25 µM (inactive) | 7.57 µM (inactive) | > 25 µM (inactive) | > 25 µM (inactive) | > 25 µM (inactive) | > 25 µM (inactive) | 14.4 µM (inactive) | > 25 µM (inactive) |
| C[n+]1c(-c2ccc(/C=N\N3CCN(/N=C/c4ccc(-c5cn6ccsc6[n+]5C)cc4)CC3)cc2)cn2ccsc21 | 30.3 µM (inactive) | 23.3 µM (inactive) | 19.2 µM (inactive) | 41.4 µM (inactive) | > 100 µM (inactive) | 11.8 µM (inactive) | 23.1 µM (inactive) | 26.1 µM (inactive) | 18.1 µM (inactive) | 26.7 µM (inactive) | 89.5 µM (inactive) | 19.5 µM (inactive) | 21.2 µM (inactive) | 43.5 µM (inactive) | 34.4 µM (inactive) | 44.8 µM (inactive) | 29.9 µM (inactive) | 25.7 µM (inactive) | – |
| O=CC(O)C(O)C(O)C(O)C(=O)NCCCCCCCCCCCCNC(=O)C(O)C(O)C(O)C(O)C=O (stereo unspecified) | > 100 µM (inactive) | > 100 µM (inactive) | > 100 µM (inactive) | > 100 µM (inactive) | > 100 µM (inactive) | – | > 100 µM (inactive) | > 100 µM (inactive) | > 100 µM (inactive) | > 100 µM (inactive) | > 100 µM (inactive) | > 100 µM (inactive) | > 100 µM (inactive) | > 100 µM (inactive) | > 100 µM (inactive) | > 100 µM (inactive) | > 100 µM (inactive) | > 100 µM (inactive) | > 100 µM (inactive) |
| O=C(OC[C@H]1C[C@H]2C(=O)CCC[C@H]2O1)c1ccccc1 | > 100 µM (inactive) | > 100 µM (inactive) | > 100 µM (inactive) | > 100 µM (inactive) | > 100 µM (inactive) | > 100 µM (inactive) | > 100 µM (inactive) | > 100 µM (inactive) | > 100 µM (inactive) | > 100 µM (inactive) | > 100 µM (inactive) | > 100 µM (inactive) | > 100 µM (inactive) | > 100 µM (inactive) | > 100 µM (inactive) | > 100 µM (inactive) | > 100 µM (inactive) | > 100 µM (inactive) | – |
| CC1(C)C2CCC1C(=O)C(C=O)C2 (stereo unspecified) | > 100 µM (inactive) | > 100 µM (inactive) | > 100 µM (inactive) | 3.16 µM (inactive) | > 100 µM (inactive) | > 100 µM (inactive) | > 100 µM (inactive) | > 100 µM (inactive) | > 100 µM (inactive) | > 100 µM (inactive) | > 100 µM (inactive) | > 100 µM (inactive) | 57.3 µM (inactive) | – | > 100 µM (inactive) | > 100 µM (inactive) | > 100 µM (inactive) | > 100 µM (inactive) | > 100 µM (inactive) |
